Results as given in patent US20220110902A1, “Methods of treating amyloid-beta peptide diseases” (Ecole Polytechnique Federale de Lausanne, priority 2016, published 2022).

Columns and labels:
[1] = tested on: old mice; assay: Myriocin treatment of aged mice: muscle function and amyloid deposits; type: in vivo, mouse; settings: 0.4 mg/kg intra peritoneal injection for 8 weeks
From the text: FIG. 14A is a graph showing that inhibition of ceramide synthesis resolves Aβ proteotoxic stress in human cells. […] (FIG. 14C) Myriocin, administered as described in FIG. 14B, improves grip strength, exercise capacity (distance run), balance (latency square in beamwalk), and movement coordination (rotarod latency) in old mice. (FIG. 14D) Myriocin treatment reduces amyloid deposits, as shown by immunodetection with Thioflavin S (ThS), in the muscle tissues of old mice.

[2] = tested on: APP/PSEN1 AD mice; assay: NR treatment of APP/PSEN1 AD mice: cortex plaques, MSR, Oxphos proteins; type: in vivo, mouse; settings: NR 400 mg/kg/day for 10 weeks
Procedure: Young (1 month old) and aged (20-24 months old) C57BL/6JRj mice were purchased from Janvier Labs. APP/PSEN1 mice (Tg(APPswe,PSEN1dE9)85Dbo/Mmjax) were purchased from JAX. C57BL/6JR mice were fed with pellets containing vehicle or NR (400 mg/kg/day) for 6-8 weeks, while APP/PSEN1 mice were fed NR pellets for 10 weeks, starting at the age of 4 months. The pellets were prepared by mixing powdered chow diet (20165, Harlan Laboratories) with water or with NR dissolved in water. Pellets were dried under a laminar flow hood for 48 hours. Mice were housed by groups of 2 to 5 animals per cage and randomized to 7-8 animals per experimental group according to their body weight. No blinding was used during the experiment procedures. Mouse: Total RNA was extracted from tissues using TriPure RNA isolation reagent (Roche) according to the product manual. Expression of selected genes was analyzed using the LightCycler480 system (Roche) and LightCycler® 480 SYBR Green I Master reagent (Roche). The beta-2-Microglobulin B2m gene was used as housekeeping reference. Mouse: Frozen cortex tissue samples were lysed by mechanical homogenization with RIPA buffer containing protease and phosphatase inhibitors, and analyzed by SDS-PAGE and western blot. Subsequently, the concentration of extracted protein was determined by using the Bio-Rad Protein Assay. Proteins were detected using the following antibodies: HSP60 (Enzo Life Science), CLPP (Sigma), anti-GAPDH (14C10) (Cell Signaling), LONP1 (Sigma), PINK1 (Novus Biologicals), LC3 A/B (Cell Signaling), SDHB (Oxphos cocktail, Abcam), MTCO1 (Abcam), Ubiquitin (Enzo), P62 (BD Transduction Laboratories), Phopsho P62 (Cell Signaling), VDAC (Abcam), β-Amyloid, 17-24 (4G8) (BioLegend). In addition to the housekeeping proteins, loading was monitored by Ponceau Red to ensure a homogeneous loading. […] Pixel intensity was quantified by using ImageJ software. […] Quantitative analysis of the immunofluorescence data was carried out by histogram analysis of the fluorescence intensity at each pixel across the images using Image J (Fiji; National Institutes of Health). […]

[3] = tested on: SH-SY5Y(APPSwe) cells; assay: Western-blot and transcript analysis in SH-SY5Y(APPSwe) cells; type: cell-based, human; settings: NR 1 mM
Procedure: Human: Total RNA was extracted using guanidine-isothiocyanate lysis (PureLink, Ambion, Waltham, Mass.) from cortex samples, and RNA integrity and concentration was verified using Bioanalysis (Agilent, Santa Clara, Calif.). Samples were randomized based on diagnostic group and assayed in triplicate on a real-time PCR cycler (ABI 7500, Applied Biosystems, Foster City) in 96-well optical plates. qPCR was performed using Taqman hydrolysis probe primer sets (Applied Biosystems) specific for the following human transcripts: HSPA9, HSPD1, YMEIL1, DNM1L, BECN1, SQSTM1, PARK2, COX5A, CYC1. A primer set specific for human GAPDH was used as a control housekeeping transcript. For the APPSwe-expressing SH-SY5Y cell line, total RNA was extracted […] using TriPure RNA isolation reagent, and expression of selected transcripts was analyzed using the LightCycler480 system (Roche) and LightCycler® 480 SYBR Green I Master reagent (Roche). The GAPDH gene was used as housekeeping reference. The ddCT method was employed to determine relative levels of each amplicon. […] The SH-SY5Y neuroblastoma cell line expressing the APP Swedish K670N/M671L double mutation (APPSwe) was a kind gift of Prof. Cedazo-Minguez (Karolinska Institute, Sweden). Cells were grown in DMEM/F-12, supplemented with 10% fetal bovine serum (FBS, Gibco), GlutaMAX (100×, Gibco) and penicillin/streptomycin (1×, Gibco). Cells were selected in 4 μg/mL Geneticin® Selective Antibiotic (G418 Sulfate, Sigma) and grown for three generations before experiments with cells plated and passaged at 4×10^3 cells/ml and 60% confluence, respectively. Cells were cultured at 37° C. under a 5% CO2 atmosphere and tested for mycoplasma using Mycoprobe (#CUL001B, R&D systems) following the manufacturer's instructions. Cells were treated with 10 μg/mL dox, NR 1 or 3 mM, ISRIB 0.5 μM (Sigma), as indicated for 24 hours before cell harvesting or fixation. For the immunostaining, cells were fixed with 1× Formal-Fixx (Thermo Scientific) for 15 min. […]

CCCCCCC(=O)CCCCCC/C=C/C[C@@H](O)[C@H](O)[C@@](N)(CO)C(=O)O [Myriocin, (E,2S,3R,4R)-2-amino-3,4-dihydroxy-2-(hydroxymethyl)-14-oxoicos-6-enoic acid]
balance (latency square in beamwalk) ([1]; mice 18 months or older): improves
exercise capacity (distance run) ([1]; mice 18 months or older): improves
grip strength ([1]; mice 18 months or older): improves
movement coordination (rotarod latency) ([1]; mice 18 months or older): improves
amyloid deposits in muscle tissues, Thioflavin S (ThS) ([1]; old mice): reduces

NC(=O)c1ccc[n+]([C@@H]2O[C@H](CO)[C@@H](O)[C@H]2O)c1 [NR, Nicotinamide Riboside triflate]
MSR signature in cortex [2]: induced
Oxphos protein levels in cortex [2]: induced
Aβ deposits (plaques) in cortex, Thioflavin S ([2]; starting at 4 months of age): robustly reduced
MSR transcript levels ([3]; 24 h, dox 10 μg/mL): increased
oxidative phosphorylation (OXPHOS) protein levels ([3]; Western-blot): increases
